From the NIST ThermoML archive (doi:10.1021/je700123q)
Numbers after ± are expanded uncertainties.

Legend:
[1] = xn = mol fraction of the nth substance listed; conditions: Liquid
[2] = Liquid; for Critical pressure: Direct measurement; for Critical temperature: Visual observation in an unstirred cell

COC(F)(F)C(F)(F)F [methyl pentafluoroethyl ether] + FC(OC(F)(F)F)C(F)(F)F
Critical density ([1]; x2 = 0): 491 ± 6 kg/m3

FC(OC(F)(F)F)C(F)(F)F (stereo not drawn) [1,1,1,2-tetrafluoro-2-(trifluoromethoxy)ethane] + COC(F)(F)C(F)(F)F
Critical density ([1]; x1 = 0.1694): 510 ± 6 kg/m3 | Critical density ([1]; x1 = 0.2941): 521 ± 6 kg/m3 | Critical density ([1]; x1 = 0.4706): 536 ± 6 kg/m3 | Critical density ([1]; x1 = 0.6565): 554 ± 6 kg/m3 | Critical density ([1]; x1 = 0.7952): 566 ± 7 kg/m3 | Critical density ([1]; x1 = 1): 580 ± 7 kg/m3

FC(OC(F)(F)F)C(F)(F)F (stereo not drawn) [1,1,1,2-tetrafluoro-2-(trifluoromethoxy)ethane] + COC(F)(F)F
Critical density ([1]; x1 = 0.1455): 480 ± 6 kg/m3 | Critical density ([1]; x1 = 0.2585): 506 ± 6 kg/m3 | Critical density ([1]; x1 = 0.4147): 523 ± 6 kg/m3 | Critical density ([1]; x1 = 0.5954): 539 ± 6 kg/m3 | Critical density ([1]; x1 = 0.7403): 558 ± 7 kg/m3 | Critical density ([1]; x1 = 1): 580 ± 7 kg/m3

FC(OC(F)(F)F)C(F)(F)F (stereo not drawn) [1,1,1,2-tetrafluoro-2-(trifluoromethoxy)ethane]
Critical density [2]: 580 ± 4 kg/m3 | Critical pressure [2]: 2621 ± 4 kPa | Critical temperature [2]: 377.26 ± 0.06 K

COC(F)(F)C(F)(F)F [methyl pentafluoroethyl ether]
Critical density [2]: 491 ± 6 kg/m3 | Critical pressure [2]: 2885 ± 6 kPa | Critical temperature [2]: 406.82 ± 0.06 K

COC(F)(F)F [trifluoromethoxymethane]
Critical density [2]: 459 ± 5 kg/m3 | Critical pressure [2]: 3640 ± 6 kPa | Critical temperature [2]: 377.92 ± 0.06 K

COC(F)(F)F [trifluoromethoxymethane] + FC(OC(F)(F)F)C(F)(F)F
Critical density ([1]; x2 = 0): 459 ± 5 kg/m3
